We go through 13 molecules from article PMC9635080, “Design, synthesis, in vitro, and in silico biological evaluations of coumarin-indole hybrids as new anti-α-glucosidase agents” (BMC Chemistry, 2022).

Series [1] concerns the target T1, yeast α-glucosidase (Saccharomyces cerevisiae, UniProt P53341).
T1 construct: purchased Sigma-Aldrich
Kind of series: In vitro α-glucosidase inhibition assay. To be noted: for potency relative to acarbose: fold more potent than acarbose, from IC50 values; for inhibitory activity against α-glucosidase (in words): SAR discussion. In kind it is biochemical. Here is the method: Appropriate enzyme concentration was obtained in potassium phosphate buffer (pH 6.8, 50 mM), and coumarin-indole hybrids 4a–m were dissolved in DMSO (10% final concentration). […] The percentage of enzyme inhibition (% Inhibition) for each sample was calculated by using the following formula: %Inhibition=[(Abs control-Abs sample)/Abs control]×100
IC50 values were calculated from non-linear regression curve using by the Logit method.

Series [2] addresses T1, yeast α-glucosidase. Kind of series: Kinetic study (Lineweaver–Burk plot) on α-glucosidase. It is filed as biochemical. Here is the method:
To determine the mechanism of α-glucosidase inhibition of the newly synthesized compounds, the kinetic study was performed on compound 4d as representative compound. The relative velocity of the α-glucosidase was determined on four increasing concentrations of the p-nitrophenyl glucopyranoside as substrate. […] Then, the Lineweaver-Burke plot was depicted using the reciprocal of velocity and substrate concentration (Fig. 2a).
Fig. 2 Kinetic study of compound 4d into α-glucosidase. a The Lineweaver–Burk plot in the absence and presence of different concentrations of compound 4d; b The secondary plot between Km and various concentrations of compound 4d
Appropriate enzyme concentration was obtained in potassium phosphate buffer (pH 6.8, 50 mM), and coumarin-indole hybrids 4a–m were dissolved in DMSO (10% final concentration). The potassium phosphate buffer (135 µL), various concentrations of the target compounds 4a–m (20 µL), and prepared enzyme solution (20 µL) were added to the 96-well plate and the later mixture was incubated for 10 min at 37 °C. […] Finally, the change in absorbance of the final mixture was measured at 405 nm by using spectrophotometer (Gen5, Power wave xs2, BioTek, America). […] The percentage of enzyme inhibition (% Inhibition) for each sample was calculated by using the following formula: %Inhibition=[(Abs control-Abs sample)/Abs control]×100

Where only a bound is given, the exact number is not on record here.

T1 sequence (P53341 whole entry): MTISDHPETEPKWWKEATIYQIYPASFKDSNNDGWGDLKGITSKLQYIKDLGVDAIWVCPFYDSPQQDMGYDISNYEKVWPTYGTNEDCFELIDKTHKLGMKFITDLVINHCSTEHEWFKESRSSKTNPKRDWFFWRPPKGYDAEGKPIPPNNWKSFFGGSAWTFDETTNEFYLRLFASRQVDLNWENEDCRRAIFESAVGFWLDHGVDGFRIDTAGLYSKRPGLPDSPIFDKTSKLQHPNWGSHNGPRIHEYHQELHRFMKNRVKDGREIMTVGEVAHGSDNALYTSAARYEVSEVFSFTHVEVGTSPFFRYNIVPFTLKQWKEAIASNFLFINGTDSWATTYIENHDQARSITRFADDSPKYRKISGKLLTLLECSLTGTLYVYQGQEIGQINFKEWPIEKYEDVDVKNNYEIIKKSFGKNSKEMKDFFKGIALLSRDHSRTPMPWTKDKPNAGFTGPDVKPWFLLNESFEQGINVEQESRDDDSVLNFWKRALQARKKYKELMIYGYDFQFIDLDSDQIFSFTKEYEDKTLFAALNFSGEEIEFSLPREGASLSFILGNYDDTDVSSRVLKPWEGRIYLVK

By IC50 is commonly meant the point on the concentration scale where inhibition reaches its midpoint. A higher IC50 goes with weaker potency. By melting point is commonly meant the temperature of the solid-liquid transition. `O=c1oc2ccccc2c(O)c1C(c1ccccc1)c1c[nH]c2ccccc12` (stereo not drawn) [Compound 4a, 3-((1H-indol-3-yl)(phenyl)methyl)-4-hydroxy-2H-chromen-2-one] gave a melting point of 231 to 233 °C. Also, on yeast α-glucosidase [1], 118 ± 3.1 µM corresponded to half-maximal inhibition (IC50) and the “potency relative to acarbose” value is recorded as “around sixfold”.

In turn, `Cc1ccc(C(c2c(O)c3ccccc3oc2=O)c2c[nH]c3ccccc23)cc1` (stereo not drawn) [Compound 4b, 3-((1H-indol-3-yl)(p-tolyl)methyl)-4-hydroxy-2H-chromen-2-one] returned a melting point of 269 to 271 °C. Also, at yeast α-glucosidase [1], the IC50 came out at 167.5 ± 0.8 µM.

For `COc1ccc(C(c2c(O)c3ccccc3oc2=O)c2c[nH]c3ccccc23)cc1` (stereo not drawn) [Compound 4c, 3-((1H-indol-3-yl)(4-methoxyphenyl)methyl)-4-hydroxy-2H-chromen-2-one], the melting point fell in the range of 246 to 248 °C. Moreover, the IC50 against yeast α-glucosidase [1] is 170 ± 2.1 µM.

The Ki is the equilibrium dissociation constant of an inhibitor or competing ligand from its target. For the molecule `O=c1oc2ccccc2c(O)c1C(c1cccc(Oc2ccccc2)c1)c1c[nH]c2ccccc12` (stereo not drawn) [Compound 4d, 3-((1H-indol-3-yl)(3-phenoxyphenyl)methyl)-4-hydroxy-2H-chromen-2-one], the melting point lay within 183 to 185 °C. Further, at yeast α-glucosidase [1], half-maximal inhibition (IC50) required 116 ± 0.7 µM and the “potency relative to acarbose” value was “around sixfold”. In addition, the Ki on yeast α-glucosidase [2] is 148 µM. Further, on yeast α-glucosidase [2] (Lineweaver–Burk plot, inhibitor 0, 28, 58 and 116 µM), the type of inhibition result is recorded as “competitive type of inhibition”.

In turn, `O=c1oc2ccccc2c(O)c1C(c1cccc(O)c1)c1c[nH]c2ccccc12` (stereo not drawn) [Compound 4e, 4-Hydroxy-3-((3-hydroxyphenyl)(1H-indol-3-yl)methyl)-2H-chromen-2-one] returned a melting point of 200 to 202 °C. Besides, at yeast α-glucosidase [1], the IC50 was above 750 µM and the “inhibitory activity against α-glucosidase (in words)” value (“inhibitory activity” for short) was “loss of effect”.

In the case of `O=c1oc2ccccc2c(O)c1C(c1ccc(O)cc1)c1c[nH]c2ccccc12` (stereo not drawn) [Compound 4f, 4-Hydroxy-3-((4-hydroxyphenyl)(1H-indol-3-yl)methyl)-2H-chromen-2-one], the melting point was in the range of 286 to 288 °C. In addition, on yeast α-glucosidase [1], the IC50 was above 750 µM and the “inhibitory activity” value is “loss of effect”.

Molecule `O=c1oc2ccccc2c(O)c1C(c1cccc(F)c1)c1c[nH]c2ccccc12` (stereo not drawn) [Compound 4g, 3-((3-Fluorophenyl)(1H-indol-3-yl)methyl)-4-hydroxy-2H-chromen-2-one] gave a melting point of 222 to 224 °C. Besides, at yeast α-glucosidase [1], the IC50 was 174 ± 2.3 µM.

Turning to `O=c1oc2ccccc2c(O)c1C(c1ccc(F)cc1)c1c[nH]c2ccccc12` (stereo not drawn) [Compound 4h, 3-((4-Fluorophenyl)(1H-indol-3-yl)methyl)-4-hydroxy-2H-chromen-2-one], the melting point lay within 243 to 245 °C. At yeast α-glucosidase [1], half-maximal inhibition (IC50) required 474.9 ± 2.6 µM and the “inhibitory activity” value is given as “dramatically decrease in inhibitory activity”.

For `O=c1oc2ccccc2c(O)c1C(c1cccc(Cl)c1)c1c[nH]c2ccccc12` (stereo not drawn) [Compound 4i, 3-((3-Chlorophenyl)(1H-indol-3-yl)methyl)-4-hydroxy-2H-chromen-2-one], the melting point is 205 to 207 °C. On yeast α-glucosidase [1], the IC50 was above 750 µM and the “inhibitory activity” value was “loss of effect”.

Regarding `O=c1oc2ccccc2c(O)c1C(c1ccc(Cl)cc1)c1c[nH]c2ccccc12` (stereo not drawn) [Compound 4j, 3-((4-Chlorophenyl)(1H-indol-3-yl)methyl)-4-hydroxy-2H-chromen-2-one], the melting point fell in the range of 235 to 237 °C. Besides, the IC50 at yeast α-glucosidase [1] stood at 230 ± 2.3 µM.

The molecule `O=c1oc2ccccc2c(O)c1C(c1cccc(Br)c1)c1c[nH]c2ccccc12` (stereo not drawn) [Compound 4k, 3-((3-Bromophenyl)(1H-indol-3-yl)methyl)-4-hydroxy-2H-chromen-2-one] gave a melting point of 212 to 214 °C. At yeast α-glucosidase [1], the IC50 is above 750 µM and the “inhibitory activity” value is “did not show activity”.

`O=c1oc2ccccc2c(O)c1C(c1ccccc1[N+](=O)[O-])c1c[nH]c2ccccc12` (stereo not drawn) [Compound 4l, 3-((1H-indol-3-yl)(2-nitrophenyl)methyl)-4-hydroxy-2H-chromen-2-one] had a melting point of 240 to 242 °C. Besides, at yeast α-glucosidase [1], the IC50 is above 750 µM and the “inhibitory activity” value is reported as “completely abolished anti-α-glucosidase activity”.

`O=c1oc2ccccc2c(O)c1C(c1cccc([N+](=O)[O-])c1)c1c[nH]c2ccccc12` (stereo not drawn) [Compound 4m, 3-((1H-indol-3-yl)(3-nitrophenyl)methyl)-4-hydroxy-2H-chromen-2-one]: the melting point fell in the range of 198 to 200 °C. For the same molecule, half-maximal inhibition against yeast α-glucosidase [1] (IC50) was put at 180.5 ± 1.4 µM.
